Assay results from the supplement of paper PMC12317010.
Counter-ions that a name gives are not always drawn.

Experiment: collision cross section in nitrogen (drift tube, single-field); higher = larger gas-phase ion size
[1] = ion type: [M+], ion source: APCI, ion mode: Positive
[2] = ion type: [M+Na], ion source: ESI, ion mode: Positive
[3] = ion source: APCI, ion mode: Positive, ion type: [M]+ (permanent cation)
[4] = ion source: ESI, ion mode: Positive, ion type: [M]+ (permanent cation)
[5] = ion type: [M-H], ion source: ESI, ion mode: Negative
[6] = ion type: [M+H], ion source: APCI, ion mode: Positive
[7] = ion type: [M+H], ion source: ESI, ion mode: Positive
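Note: chemical standards at 10 µM analysed by drift tube IMS-QTOF MS in about 3.95 torr nitrogen, mean of duplicate injections differing ≤1%, mass error below 10 ppm.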

Compound | collision cross section in nitrogen [2] [Å²] | collision cross section in nitrogen [5] [Å²] | also measured
c1ccc2cc3c(ccc4ccccc43)cc2c1 [Benz(a)anthracene] | – | – | collision cross section in nitrogen [1]: 146.3 Å²
O=C(O)CONC(=O)c1ccccc1 [Benzadox] | 150.9 | – | –
CCCCCCCC[N+](C)(C)Cc1ccccc1 [Benzalkonium chloride C8 (BAC C8)] | – | – | collision cross section in nitrogen [3]: 170.1 Å²; collision cross section in nitrogen [4]: 171.3 Å²
CCCCCCCCCCCC[N+](C)(C)Cc1ccccc1 [Benzalkonium chloride C12 (BAC C12)] | – | – | collision cross section in nitrogen [3]: 193 Å²; collision cross section in nitrogen [4]: 193.9 Å²
CCCCCCCCCCCCCCCC[N+](C)(C)Cc1ccccc1 [Benzalkonium chloride C16 (BAC C16)] | – | – | collision cross section in nitrogen [3]: 208.9 Å²
CCCCCCCCCCCCCCCCCC[N+](C)(C)Cc1ccccc1 [Benzalkonium chloride C18 (BAC C18)] | – | – | collision cross section in nitrogen [3]: 215.1 Å²; collision cross section in nitrogen [4]: 216.6 Å²
CCOC(=O)Cc1ccccc1 [Benzeneacetic acid, ethyl ester] | – | 144.3 | –
N=C(N)c1ccccc1 [Benzenecarboximidamide, monohydrochloride] | – | – | collision cross section in nitrogen [6]: 124.7 Å²; collision cross section in nitrogen [7]: 125 Å²
c1ccc2[nH]cnc2c1 [Benzimidazole] | – | – | collision cross section in nitrogen [6]: 121 Å²; collision cross section in nitrogen [7]: 121.8 Å²
c1ccc2c(c1)ccc1ncccc12 [Benzo(f)quinoline] | – | – | collision cross section in nitrogen [6]: 134.7 Å²; collision cross section in nitrogen [7]: 134.8 Å²; collision cross section in nitrogen [1]: 130.3 Å²
c1ccc2c(c1)c1cccc3ccc4cccc2c4c31 [Benzo[e]pyrene] | – | – | collision cross section in nitrogen [1]: 149.7 Å²
c1ccc2cc3c(cc2c1)-c1cccc2cccc-3c12 [Benzo[k]fluoranthene] | – | – | collision cross section in nitrogen [1]: 151.3 Å²
CCCCOC(=O)c1ccccc1C(=O)OCc1ccccc1 [Benzyl butyl phthalate] | 178.3 | – | –
CC[N+](CC)(CC)Cc1ccccc1 [Benzyl trialkyl ammonium compound C2:C2:C2 (BTAAC C2:C2:C2)] | – | – | collision cross section in nitrogen [4]: 143.1 Å²
C[N+](C)(C)Cc1ccccc1 [Benzyltrimethylammonium chloride] | – | – | collision cross section in nitrogen [4]: 131.9 Å²
C[N+](C)(C)Cc1ccccc1 [Benzyltrimethylammonium hydroxide] | – | – | collision cross section in nitrogen [4]: 131.3 Å²
COc1ccc(-c2ccccc2)cc1NNC(=O)OC(C)C [Bifenazate] | 185.7 | – | –
CC(C)=C[C@@H]1[C@@H](C(=O)OCc2coc(Cc3ccccc3)c2)C1(C)C [Bioresmethrin] | 188.3 | – | –

Compound | collision cross section in nitrogen [2] [Å²] | collision cross section in nitrogen [5] [Å²] | also measured
CC(C)c1cccc(C(C)C)c1N=C=Nc1c(C(C)C)cccc1C(C)C [Bis(2,6-diisopropylphenyl)carbodiimide] | – | – | collision cross section in nitrogen [6]: 189.6 Å²; collision cross section in nitrogen [7]: 190.5 Å²
CCCCOCCOC(=O)CCCCCCCCC(=O)OCCOCCCC [Bis(2-butoxyethyl) decanedioate] | 197.8 | – | –
CCCCOCCOC(=O)c1ccccc1C(=O)OCCOCCCC [Bis(2-butoxyethyl) phthalate] | 187.5 | – | –
CCCCC(CC)COC(=O)c1c(Br)c(Br)c(Br)c(Br)c1C(=O)OCC(CC)CCCC (stereo not drawn) [Bis(2-ethylhexyl) tetrabromophthalate] | 240.6 | – | –
CCCCC(CC)COC(=O)CCCCC(=O)OCC(CC)CCCC (stereo not drawn) [Bis(2-ethylhexyl)hexanedioate] | 216.5 | – | –
CN(C)c1ccc(C(=O)c2ccc(N(C)C)cc2)cc1 [Bis(4-(dimethylamino)phenyl)methanone] | 175.8 | – | collision cross section in nitrogen [6]: 166.8 Å²; collision cross section in nitrogen [7]: 166.5 Å²
Oc1ccc(Cc2ccc(O)cc2)cc1 [Bis(4-hydroxyphenyl)methane] | – | 153.6 | –
CC(C)(c1ccc(O)c(-c2ccccc2)c1)c1ccc(O)c(-c2ccccc2)c1 [BisOPP-A] | – | 204 | –
CCCCOCCOCCOC(=O)CCCCC(=O)OCCOCCOCCCC [Bis[2-(2-butoxyethoxy)ethyl] adipate] | 198.8 | – | collision cross section in nitrogen [6]: 203.8 Å²; collision cross section in nitrogen [7]: 205.4 Å²
c1cc(OCC2CO2)ccc1Cc1ccc(OCC2CO2)cc1 (stereo not drawn) [Bis[4-(glycidyloxy)phenyl]methane] | 169 | – | –
CC(C)(c1ccc(OCC2CO2)cc1)c1ccc(OCC2CO2)cc1 (stereo not drawn) [Bisphenol A diglycidyl ether] | 176.7 | – | –
Oc1ccc(C(c2ccc(O)cc2)(C(F)(F)F)C(F)(F)F)cc1 [Bisphenol AF] | – | 165.6 | –
CCC(C)(c1ccc(O)cc1)c1ccc(O)cc1 [Bisphenol B] | – | 165.8 | –
CC(c1ccc(O)cc1)c1ccc(O)cc1 [Bisphenol E] | – | 158.3 | –
CC(C)(c1ccc(O)cc1)c1ccc(C(C)(C)c2ccc(O)cc2)cc1 [Bisphenol P] | – | 180.1 | –
COc1cc(OC)nc(Oc2cccc(Oc3nc(OC)cc(OC)n3)c2C(=O)O)n1 [Bispyribac-sodium] | 198.6 | 187.4 | collision cross section in nitrogen [6]: 198.3 Å²; collision cross section in nitrogen [7]: 198.5 Å²
O=C(Nc1ccccc1-c1ccc(Cl)cc1)c1cccnc1Cl [Boscalid] | – | 177.1 | collision cross section in nitrogen [7]: 175.5 Å²
CCC(C)n1c(=O)[nH]c(C)c(Br)c1=O (stereo not drawn) [Bromacil] | – | 146.6 | –

Further lines, with some results ahead:

collision cross section in nitrogen [2] [Å²] | collision cross section in nitrogen [5] [Å²] | Compound | also measured
– | 127.2 | O=S(=O)(O)c1ccccc1 [Benzenesulfonic acid] | –
– | 123.7 | Oc1nc2ccccc2s1 [Benzothiazolone] | –
– | 158.5 | O=C(OCc1ccccc1)c1ccc(O)cc1 [Benzyl 4-hydroxybenzoate] | –
– | 153.3 | O=C(OCc1ccccc1)c1ccccc1O [Benzyl salicylate] | –
191.9 | – | CCCCC(CC)COC(=O)CCCCC(=O)OCc1ccccc1 (stereo not drawn) [Benzyloctyl adipate] | –
202 | 188.5 | O=c1[nH]c2ccc(S(=O)CCN3CCC(Cc4ccc(F)cc4)CC3)cc2o1 (stereo not drawn) [Besonprodil] | collision cross section in nitrogen [6]: 203.6 Å²; collision cross section in nitrogen [7]: 203.4 Å²
133.3 | – | C[N+](C)(C)CC(=O)[O-] [Betaine] | collision cross section in nitrogen [7]: 121.4 Å²
211.7 | 199.8 | C[C@H]1C[C@H]2[C@@H]3CCC4=CC(=O)C=C[C@]4(C)[C@@]3(F)[C@@H](O)C[C@]2(C)[C@@]1(O)C(=O)COP(=O)(O)O [Betamethasone 21-phosphate disodium] | –
– | 215.5 | CCCCC(=O)O[C@]1(C(=O)CO)[C@@H](C)C[C@H]2[C@@H]3CCC4=CC(=O)C=C[C@]4(C)[C@@]3(F)[C@@H](O)C[C@@]21C [Betamethasone valerate] | –
215.2 | – | C[C@H]1C[C@H]2[C@@H]3CCC4=CC(=O)C=C[C@]4(C)[C@@]3(F)[C@@H](O)C[C@]2(C)[C@@]1(O)C(=O)CO [Betamethasone] | collision cross section in nitrogen [7]: 177.2 Å²
– | 208.7 | C=C(c1ccc(C(=O)O)cc1)c1cc2c(cc1C)C(C)(C)CCC2(C)C [Bexarotene] | –
189 | – | CC(C)(Oc1ccc(CCNC(=O)c2ccc(Cl)cc2)cc1)C(=O)O [Bezafibrate] | collision cross section in nitrogen [6]: 178.5 Å²; collision cross section in nitrogen [7]: 177.8 Å²
175 | 168 | COc1ccc(-c2coc3cc(O)cc(O)c3c2=O)cc1 [Biochanin A] | collision cross section in nitrogen [6]: 164.6 Å²; collision cross section in nitrogen [7]: 164.1 Å²
159.6 | 155.5 | O=C(O)CCCC[C@@H]1SC[C@H]2NC(=O)N[C@@H]12 [Biotin] | collision cross section in nitrogen [6]: 149.9 Å²; collision cross section in nitrogen [7]: 149.3 Å²
224.2 | – | CCCCC(CC)COC(=O)CCCCCCCCC(=O)OCC(CC)CCCC (stereo not drawn) [Bis(2-ethylhexyl) decanedioate] | –
207.2 | – | CCCCC(CC)COC(=O)/C=C\C(=O)OCC(CC)CCCC (stereo not drawn) [Bis(2-ethylhexyl) maleate] | –
222.3 | – | CCCCC(CC)COC(=O)CCCCCCCC(=O)OCC(CC)CCCC (stereo not drawn) [Bis(2-ethylhexyl) nonanedioate] | –
201 | 187 | CCCCC(CC)COP(=O)(O)OCC(CC)CCCC (stereo not drawn) [Bis(2-ethylhexyl) phosphate] | –
219.6 | – | CC(CCOC(=O)c1ccccc1C(=O)OCC[C@@H](C)CC(C)(C)C)CC(C)(C)C (stereo partly drawn) [Bis(3,5,5-trimethylhexyl) phthalate] | –
169.5 | – | C=C(C)C(=O)OCCOP(=O)(O)OCCOC(=O)C(=C)C [Bis(methacryloyloxyethyl) hydrogen phosphate] | –
182.7 | 174.3 | O=C1C=CC(=O)N1c1ccc(Cc2ccc(N3C(=O)C=CC3=O)cc2)cc1 [Bismaleimide] | collision cross section in nitrogen [6]: 197.5 Å²
215.5 | – | C=C(C)C(=O)OCC(O)COc1ccc(C(C)(C)c2ccc(OCC(O)COC(=O)C(=C)C)cc2)cc1 (stereo not drawn) [Bisphenol A glycidyl methacrylate] | –
– | 161.9 | CC(C)(c1ccc(O)cc1)c1ccc(O)cc1 [Bisphenol A] | –
– | 168.8 | Oc1c(Cl)cc(Cl)cc1Sc1cc(Cl)cc(Cl)c1O [Bithionol] | collision cross section in nitrogen [7]: 154.7 Å²
234.4 | 232.9 | COc1ccccc1Oc1c(NS(=O)(=O)c2ccc(C(C)(C)C)cc2)nc(-c2ncccn2)nc1OCCO [Bosentan hydrate] | collision cross section in nitrogen [6]: 229.9 Å²; collision cross section in nitrogen [7]: 229.4 Å²
